Values quoted from earlier work as cited in patent US20180243282A1, “Preparation and Use of Combination Enzyme and Gastrointestinal Modulator Delivery Systems” (Curemark, LLC, priority 2010, published 2018).

How the values were obtained:
[1] = acidic conditions in the stomach
[2] = in vivo
[3] = in vivo; remark: listed apart in the source

Compound	protective coating lasts [1]	systemic absorption [2]	systemic toxicity [2]	excretion [2]	clearance by hemodialysis [3]
sucralfate	up to 6 hours	lack of systemic absorption	no systemic toxicity		
Bismuth		largely unabsorbed		excreted in the feces	
CN/C(=N/CCSCc1nc[nH]c1C)NC#N [cimetidine]					cleared by hemodialysis
